# Reference: patent US20240151711A1, “ADJUVANT FOR VACCINE DEVELOPMENT” (priority 2021, published 2024)
# Columns and labels:
# BMDCs = test: Stimulation of cytokine production by mRNA vaccine in BMDCs (ELISA); type: cell-based, mouse; settings: 24 hours; FIG. 20
# Protocol: GM-CSF/IL4-induced BMDCs were seeded into 24-well plates at a seeding density of 5×10^5 cells/well, and treated with PBS control, the TLR7 agonist imiquimod, mRNA-free vehicle control, mRNA core control, or mRNA vaccine (MVP) for 24 hours. Cell growth media were collected and IFN-b and TNF-α levels were measured with ELISA assay (FIG. 20). To determine pathways that play important roles on stimulation of cytokine production, BMDCs were induced from bone marrow cells collected from wild-type mice, Sting knockout mice, and Tlr7 knockout mice. Cells were treated with PBS control, mRNA-free vehicle control, mRNA core control, or mRNA vaccine (MVP) for 24 hours, and cell growth media were collected 24 hours later for measurement of cytokine levels.
# tumor = settings: intra-tumoral administration; cited from earlier work
# [1] = system: BMDCs derived from wild-type mice or Sting knockout mice; test: Identification of key adjuvant component in mRNA vaccine (EDOPC replaced with DOTAP); type: cell-based, mouse; settings: Vehicle or MVP prepared with EDOPC or DOTAP; FIG. 22
# Excerpt: In order to determine the role of the charged lipid (i.e., EDOPC), positively charged 1,2-dioleoyl-3-trimethylammonium-propane (DOTAP) was used to replace EDOPC to prepare vehicle and mRNA vaccine. The resulting vehicle (Vehicle with DOTAP) and mRNA vaccine (MVP with DOTAP) were applied to compare with the parental vehicle (Vehicle with EDOPC) and mRNA vaccine (MVP with EDOPC) on stimulation of cytokine expression after BMDC treatment.
compound,measurement,setting,value
CC(C)Cn1cnc2c(N)nc3ccccc3c21 [imiquimod],IFN-β level in growth media,BMDCs,same as potent in stimulating IFN-β expression
same,TNF-α level in growth media,BMDCs,same as potent in stimulating TNF-α expression
"Cc1ccc2c(=O)c3cccc(CC(=O)O)c3oc2c1C [DMXAA, 5,6-dimethylxanthenone-4-acetic acid]",antitumor immunity,tumor,strong antitumor immunity
"CCCCCCCC/C=C\CCCCCCCC(=O)OC[C@@H](COP(=O)(OCC)OCC[N+](C)(C)C)OC(=O)CCCCCCC/C=C\CCCCCCCC (stereo partly shown) [EDOPC, 1,2-dioleoyl-sn-glycero-3-ethylphosphocholine]",IFN-β level in growth media,[1],essential for STING-dependent stimulation
